This note sets out measurements from patent publication US5543422A, “Heterocyclic amines” (British Technology Group Limited, priority 1992, dated 1996).

Where a name gives a salt, the structure may show the parent alone. Read-outs that look alike come from different tables or passages of the source.

The target of one data set is T1, calmodulin (Bos taurus, UniProt P62157).
T1 construct: a sufficient amount of bovine brain calmodulin; from tissue; host or cells: bovine brain (calmodulin); bovine heart (PDE)
The experiment in a line: inhibition of calmodulin activation of cyclic nucleotide phosphodiesterase (PDE), hydrolysis of [3H] cAMP. It counts as biochemical, bovine.

Data set [1] is described as follows: base strength (pka) of the terminal amine. The format is physicochemical. To be noted: Table 5, terminal amine.
For data set [2], the system named is calmodulin-independent PDE. Kind of data set: inhibition of calmodulin-independent activity of PDE. To be noted: various concentrations. It counts as biochemical, bovine. On the procedure: The assay was based on the incubation of calmodulin-deficient bovine heart PDE with [^3 H] cyclic adenosine monophosphate (cAMP), and a sufficient amount of bovine brain calmodulin (12.5 ng/100 μl) to give 70-80% activation of the enzyme. The resultant [^3 H] 5'-AMP formed was hydrolysed to [3H] adenosine upon incubation with the 5'-nucleotidase of the Western Diamondback Rattlesnake (Crotalus atrox). The nucleoside was then separated from the unreacted substrate using anion exchange resin. […] The degree of inhibition of calmodulin-activation of PDE in the presence of a range of drugs was expressed as a percentage of the activity of calmodulin-activated PDE in the absence of any drug. […] To give an indication of any inhibition of PDE by compounds, the activity of PDE in the presence of two concentrations of compound (approximately ten fold difference) were included in the assay. As there was no significant difference in the activity of PDE with or without the drug it was concluded that there was no inhibition of calmodulin-independent PDE by the drugs at the concentrations used. The percentage inhibition recorded for calmodulin-activated PDE was therefore due solely to the action of the drugs on the activity of calmodulin.

[3] abbreviates: Table 4, heteroatoms in the side chain, mean ± S.E., read-out: IC50 in μM (x ± SE).
Setting [4] is: Table 7, effect of the aryl moiety, mean ± S.E. of three assays, * (drawing 9 6 pyrrolidine) mean of two, read-out: IC50 in μM (x ± SE).
Where [5] appears, read: Table 5, effect of base strength of the terminal amine, mean ± S.E., read-out: IC50 in μM (x ± S.E.).
[6] abbreviates: Table 2, mean ± S.E. of three assays, * (α 3 CH2, β 2 CH2, β 3 CH2, α 3 0, β 2 0) mean of two, read-out: IC50 in μM (x ± SE).
Where [7] appears, read: Table 3, mean ± S.E. of three assays, * (β 6 piperdine) mean of two, read-out: IC50 in μM (x ± SE).
[8] abbreviates: Table 1, mean ± S.E. of three assays, * (β CHCH 4 6) mean of two, read-out: IC50 in μM (x ± SE).

On to `c1ccc2c(OCCSCCN3CCCCC3)cccc2c1`, for which the IC50 (in general, the concentration that inhibits the measured activity by half) at calmodulin (setting [3]) came out at 41.7 ± 6.2 µM.

For `c1ccc2c(CCNCCCCCN3CCCCC3)cccc2c1`, the IC50 on calmodulin (setting [3]) is 11.5 ± 1.6 µM.

Take `Brc1ccc2cc(OCCCCN3CCCCC3)ccc2c1`: the IC50 on calmodulin (Table 6, halogen substitution on the naphthalene ring, mean ± S.E., read-out: IC50 in μM (x ± SE)) turned out to be 9.3 ± 2 µM.

`Clc1ccc(OCCCCN2CCCCC2)cc1Cl`: on calmodulin (setting [4]), the IC50 was 55.3 ± 10 µM.

Turning to `NCCCCOc1cccc2ccccc12` [NH2], the IC50 at calmodulin (setting [5]) came out at 3.85 ± 0.2 µM. The pKa (commonly the negative logarithm of the acid dissociation constant) in data set [1] was determined as 10.6.

Regarding `c1cc(OCCCCN2CCCCC2)c2ccsc2c1` [drawing 8 4 piperdine, N-[4-(benzo[b]thien-4-yloxy)butyl]piperidine oxalate], the IC50 on calmodulin (setting [4]) came out at 1.8 ± 0.6 µM.

Consider `c1cc(OCCCCN2CCCC2)c2ccsc2c1` [drawing 8 4 pyrrolidine, N-4-(benzo[b]thien-4-yloxy)butylpyrrolidine], for which, at calmodulin (setting [4]), the concentration for half-maximal inhibition (IC50) worked out at 0.88 ± 0.14 µM.

As to `c1cc(OCCCCCCN2CCCCC2)c2ccsc2c1` [drawing 8 6 piperdine, N-6-(benzo[b]thien-4-yloxy)hexylpiperidine], on calmodulin (setting [4]), the concentration for half-maximal inhibition (IC50) is 0.38 ± 0.1 µM.

As for `c1cc(OCCCCCCN2CCCC2)c2ccsc2c1` [drawing 8 6 pyrrolidine, N-6-(benzo[b]thien-4-yloxy)hexylpyrrolidine], the IC50 on calmodulin (setting [4]) stood at 0.22 ± 0.04 µM.

Take `c1cc(OCCCCN2CCCCC2)c2occc2c1` [drawing 9 4 piperdine]: the IC50 on calmodulin (setting [4]) amounted to 70.1 ± 8.6 µM.

On to `c1cc(OCCCCCCN2CCCC2)c2occc2c1` [drawing 9 6 pyrrolidine], for which, at calmodulin (setting [4]), the IC50 is 204 ± 13.3 µM.

In the case of `c1ccc2c(OCCCCn3ccnc3)cccc2c1` [imidazole], at calmodulin (setting [5]), the 50% inhibitory concentration (IC50) stood at 68.3 ± 6.7 µM. Also, in data set [1], the pKa amounted to 7.33.

For `O=C(O)C(=O)O` [oxalic acid], the “effect on PDE” value in data set [2] was “none was found”. Also, at calmodulin (various concentrations), the “effect on calmodulin-activated PDE” value is on record as “none was found”.

With `c1ccc2c(OCCCCN3CCCC3)cccc2c1` [pyrrolidine, N-4-(naphth-1-yloxy)butylpyrrolidine], at calmodulin (setting [5]), the 50% inhibitory concentration (IC50) turned out to be 4 ± 0.2 µM. This compound returned a pKa in data set [1] of 10.3.

Take `c1ccc2c(OCCN3CCOCC3)cccc2c1` [α 2 0]: the concentration for half-maximal inhibition (IC50) at calmodulin (setting [6]) is over 250 µM.

As for `c1ccc2c(OCCN3CCCCC3)cccc2c1` [α 2 CH2], the IC50 on calmodulin (setting [6]) stood at 152 ± 18.8 µM.

As for `c1ccc2c(OCCCN3CCOCC3)cccc2c1` [α 3 0], the IC50 on calmodulin (setting [6]) is 217 ± 24.7 µM.

Take `c1ccc2c(OCCCN3CCCCC3)cccc2c1` [α 3 CH2]: at calmodulin (setting [6]), the IC50 turned out to be 106 ± 18 µM.

Take `c1ccc2c(OCCCCN3CCOCC3)cccc2c1` [α 4 0]: on calmodulin (setting [6]), the IC50 came out at 53.2 ± 10.5 µM. Moreover, the pKa in data set [1] turned out to be 7.41.

Consider `c1ccc2c(OCCCCN3CCCCC3)cccc2c1` [α 4 CH2, -4-(naphth-1-yloxy)butylpiperidine oxalate], for which the IC50 on calmodulin (setting [6]) is 7.4 ± 0.5 µM. The compound also gave a pKa in data set [1] of 10.1.

`c1ccc2c(SCCCCN3CCCCC3)cccc2c1` [α 4 piperdine]: the IC50 at calmodulin (setting [7]) turned out to be 23.6 ± 1.6 µM.

For the compound `c1ccc2c(OCCCCCN3CCOCC3)cccc2c1` [α 5 0], the IC50 at calmodulin (setting [6]) was 42.3 ± 9.1 µM.

With `c1ccc2c(OCCCCCN3CCCCC3)cccc2c1` [α 5 CH2], the IC50 at calmodulin (setting [8]) stood at 39.1 ± 8.9 µM.

`c1ccc2c(OCCCCCCN3CCCCC3)cccc2c1` [α 6 CH2]: the IC50 on calmodulin (setting [6]) came to 28.5 ± 2 µM.

For the compound `c1ccc2c(OCCCCCCCN3CCCCC3)cccc2c1` [α 7 CH2, N-7-(naphth-1-yloxy)heptylpiperidine hydrochloride], on calmodulin (setting [6]), the IC50 amounted to 4.7 ± 0.3 µM.

Regarding `c1ccc2c(OCCCCCCCCN3CCCCC3)cccc2c1` [α 8 CH2], the half-inhibitory concentration (IC50) at calmodulin (setting [6]) turned out to be 5.3 ± 0.3 µM.

For the compound `c1ccc2cc(OCCN3CCOCC3)ccc2c1` [β 2 0], the IC50 on calmodulin (setting [6]) is over 250 µM.

In the case of `c1ccc2cc(OCCN3CCCCC3)ccc2c1` [β 2 CH2], at calmodulin (setting [6]), the IC50 is over 250 µM.

Turning to `c1ccc2cc(OCCCN3CCOCC3)ccc2c1` [β 3 0], the IC50 at calmodulin (setting [6]) was over 250 µM.

As to `c1ccc2cc(OCCCN3CCCCC3)ccc2c1` [β 3 CH2], on calmodulin (setting [6]), the IC50 is 29.2 ± 1.4 µM.

Consider `c1ccc2cc(SCCCN3CCCCC3)ccc2c1` [β 3 piperdine], for which the IC50 on calmodulin (setting [7]) is 77.7 ± 4.1 µM.

Turning to `c1ccc2cc(OCCCCN3CCOCC3)ccc2c1` [β 4 0], at calmodulin (setting [6]), the IC50 is 85.6 ± 7 µM.

In the case of `c1ccc2cc(OCCCCN3CCCCC3)ccc2c1` [β 4 CH2], on calmodulin (setting [6]), the IC50 was found to be 55.8 ± 6 µM.

Take `c1ccc2cc(SCCCCN3CCCCC3)ccc2c1` [β 4 piperdine]: on calmodulin (setting [7]), the IC50 came out at 12.3 ± 2.6 µM.

For `c1ccc2cc(SCCCCN3CCCC3)ccc2c1` [β 4 pyrrolidine], on calmodulin (setting [7]), the IC50 is 18 ± 1.3 µM.

Take `c1ccc2cc(OCCCCCN3CCOCC3)ccc2c1` [β 5 0]: the IC50 on calmodulin (setting [6]) turned out to be 72.7 ± 9.4 µM.

Turning to `c1ccc2cc(OCCCCCN3CCCCC3)ccc2c1` [β 5 CH2], the IC50 on calmodulin (setting [6]) is 53.9 ± 1.6 µM.

In the case of `c1ccc2cc(SCCCCCN3CCOCC3)ccc2c1` [β 5 morpholine], the IC50 at calmodulin (setting [7]) came out at 20.1 ± 2.25 µM.

Turning to `c1ccc2cc(SCCCCCN3CCCCC3)ccc2c1` [β 5 piperdine], the IC50 at calmodulin (setting [8]) is 22.1 ± 3 µM.

With `c1ccc2cc(SCCCCCCN3CCCCC3)ccc2c1` [β 6 piperdine], at calmodulin (setting [7]), the IC50 stood at 12.5 ± 1.5 µM.

For the compound `C(=Cc1ccc2ccccc2c1)CCCCN1CCCCC1` [β CHCH 4 6, N-6-(naphth-2-yl)hex-5-enylpiperidine oxalate], at calmodulin (setting [8]), the IC50 came to 2.2 ± 0.3 µM.
